Experimental data published in patent US11999727B2 (Tango Therapeutics, Inc., priority 2020, dated 2024).

Tests used:
PRMT5 [1] = target: T1, PRMT5 (Homo sapiens, UniProt O14744); assay: PRMT5 biochemical IC50 assay with SAM as cofactor; details: PRMT5, SAM as cofactor; read-out: SAM IC50
T1 construct: purchased Viva (custom protein)

[2] = system: HAP1 MTAP-deleted cell line; assay: Viability assay, MTAP-deleted cell line; assay type: cell-based; details: Homo sapiens, HAP1, viability assay, MTAP-deleted cell line; read-out: HAP1 MTAP deleted viability
Description: Table 1 additionally indicates IC50 values in a viability assay for the MTAP-deleted cell line (column 10), indicating the effect of treatment with compound on cell survival.

PRMT5 [3] = target: T1, PRMT5; assay: PRMT5 biochemical IC50 assay with no cofactor; details: PRMT5, no cofactor; read-out: No Cofactor/rel IC50
Description: Table 1 indicates IC50 values (μM) against PRMT5 for exemplary compounds in the presence of SAM as cofactor, with no cofactor, and with MTA as cofactor, respectively (columns 4-6). […] Ki values can be calculated from the IC50 values as described in the Examples section. As detailed in the Examples section, for the assay performed in the presence of SAM, IC50=Ki×1.5 (Ki=IC50/1.5).

[4] = system: HAP1 MTAP-deleted cell line; assay: SDMA in-cell western assay, HAP1 MTAP-deleted; assay type: cell-based; details: for IC50: Homo sapiens, HAP1, SDMA in-cell western, HAP1 MTAP-deleted, read-out: HAP1 MTAP deleted IC50; for MTAP intact/deleted ratio: IC50 ratio HAP1 MTAP-intact / HAP1 MTAP-deleted, SDMA in-cell western
How it was run: (§1)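 MTAP-null vs endogenous-MTAP HAP1 isogenic cells; in-cell western SDMA readout; IC50 per line.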

PRMT5 [5] = target: T1, PRMT5; assay: PRMT5 biochemical IC50 assay with MTA as cofactor; details: PRMT5, MTA as cofactor; read-out: MTA IC50
[6] = system: HAP1 MTAP-intact cell line; assay: SDMA in-cell western assay, HAP1 MTAP-intact; assay type: cell-based; details: Homo sapiens, HAP1, SDMA in-cell western, HAP1 MTAP-intact; read-out: MTAP HAP1 intact IC50
How it was run: as §1

T1 sequence (O14744 whole entry): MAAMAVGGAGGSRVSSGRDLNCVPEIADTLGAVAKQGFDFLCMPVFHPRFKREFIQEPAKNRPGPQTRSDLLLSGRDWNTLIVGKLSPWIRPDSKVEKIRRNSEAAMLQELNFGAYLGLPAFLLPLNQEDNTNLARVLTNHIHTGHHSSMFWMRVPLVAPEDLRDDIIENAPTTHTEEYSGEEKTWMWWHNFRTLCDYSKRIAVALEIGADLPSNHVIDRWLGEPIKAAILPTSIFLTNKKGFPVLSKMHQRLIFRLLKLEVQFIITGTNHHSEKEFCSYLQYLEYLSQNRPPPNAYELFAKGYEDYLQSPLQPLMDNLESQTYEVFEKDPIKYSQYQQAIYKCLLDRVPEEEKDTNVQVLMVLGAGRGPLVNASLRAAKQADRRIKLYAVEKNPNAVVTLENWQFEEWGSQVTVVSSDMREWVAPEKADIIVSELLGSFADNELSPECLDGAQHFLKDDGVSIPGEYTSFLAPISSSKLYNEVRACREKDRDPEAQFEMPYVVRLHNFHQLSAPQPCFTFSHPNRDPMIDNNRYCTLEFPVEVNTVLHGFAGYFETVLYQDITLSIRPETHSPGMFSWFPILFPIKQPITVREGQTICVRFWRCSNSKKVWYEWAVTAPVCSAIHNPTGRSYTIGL
T1 sequence (Q9BQA1 whole entry partner): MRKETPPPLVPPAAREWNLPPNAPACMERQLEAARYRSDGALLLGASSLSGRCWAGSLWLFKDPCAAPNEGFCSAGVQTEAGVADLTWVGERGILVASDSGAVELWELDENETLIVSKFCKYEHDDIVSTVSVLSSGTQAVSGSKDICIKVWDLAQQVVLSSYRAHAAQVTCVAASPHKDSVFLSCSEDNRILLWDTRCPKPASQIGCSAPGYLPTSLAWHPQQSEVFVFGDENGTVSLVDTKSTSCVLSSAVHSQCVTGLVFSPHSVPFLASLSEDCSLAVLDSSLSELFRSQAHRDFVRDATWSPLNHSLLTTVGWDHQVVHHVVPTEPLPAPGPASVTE

| Structure (SMILES) | IC50 (PRMT5 [1]) | IC50 (PRMT5 [3]) | IC50 [4] | IC50 (PRMT5 [5]) | IC50 [6] | IC50 [2] | MTAP intact/deleted ratio [4] |
| --- | --- | --- | --- | --- | --- | --- | --- |
| CC[C@@H]1CCN(C(=O)C(=O)Nc2cncc(C(N)=O)c2)[C@H](c2ccccc2)C1 (racemic) [Compound 497, rac-5-[[2-[(2S,4R)-4-ethyl-2-phenyl-1-piperidyl]-2-oxo-acetyl]amino]pyridine-3-carboxamide] | 50 to 500 nM | 50 to 500 nM | 100 to 1000 nM | < 50 nM | > 1000 nM | 1000 to 10000 nM | A (an IC50 ratio greater than or equal to 10 fold) |
| CNc1ccc([C@@H]2CC[C@@H](C)CN2C(=O)C(=O)Nc2cnc(N)c(C)c2)cc1 (racemic) [Compound 498, N-(6-amino-5-methyl-3-pyridyl)-2-[(2S,5R)-5-methyl-2-[4-(methylamino)phenyl]-1-piperidyl]-2-oxo-acetamide] | 50 to 500 nM | 50 to 500 nM | < 100 nM | 50 to 500 nM | > 1000 nM | < 1000 nM | A (an IC50 ratio greater than or equal to 10 fold) |
| C[C@@H]1CC[C@@H]([C@@H]2CCC(O)C2)N(C(=O)C(=O)Nc2cncc(C(N)=O)c2)C1 (mixture of isomers) [Compound 517, 5-[[2-[(2S,5R)-2-(3-Hydroxycyclopentyl)-5-methyl-1-piperidyl]-2-oxo-acetyl]amino]pyridine-3-carboxamide] | > 500 nM | > 500 nM | > 1000 nM | 50 to 500 nM | > 1000 nM | > 10000 nM | C (an IC50 ratio of less than 3 fold) |
| C[C@@H]1CC[C@@H](c2ccc(-c3ccn[nH]3)cc2)N(C(=O)C(=O)Nc2cncc(C(N)=O)c2)C1 (racemic) [Compound 524, 5-[[2-[(2S,5R)-5-methyl-2-[4-(1H-pyrazol-5-yl)phenyl]-1-piperidyl]-2-oxo-acetyl]amino]pyridine-3-carboxamide] | 50 to 500 nM | 50 to 500 nM | 100 to 1000 nM | 50 to 500 nM | > 1000 nM | 1000 to 10000 nM | A (an IC50 ratio greater than or equal to 10 fold) |

Continued, in another order:

| IC50 (PRMT5 [1]) | IC50 (PRMT5 [3]) | IC50 [4] | IC50 (PRMT5 [5]) | IC50 [6] | Structure (SMILES) | IC50 [2] | MTAP intact/deleted ratio [4] |
| --- | --- | --- | --- | --- | --- | --- | --- |
| 50 to 500 nM | 50 to 500 nM | 100 to 1000 nM | 50 to 500 nM | > 1000 nM | Cc1n[nH]c2ccc([C@@H]3CC[C@@H](C)CN3C(=O)C(=O)Nc3cncc(C(N)=O)c3)cc12 (racemic) [Compound 500, rac-5-[[2-[(2S,5R)-5-Methyl-2-(3-methyl-1H-indazol-5-yl)-1-piperidyl]-2-oxo-acetyl]amino]pyridine-3-carboxamide] | 1000 to 10000 nM | A (an IC50 ratio greater than or equal to 10 fold) |
| > 500 nM | > 500 nM | > 1000 nM | 50 to 500 nM | > 1000 nM | COc1ncc(NC(=O)C(=O)N2C[C@@H](C)CC[C@@H]2c2csc3ccccc23)cc1C(N)=O (racemic) [Compound 501, 5-[[2-[2-(benzothiophen-3-yl)-5-methyl-1-piperidyl]-2-oxo-acetyl]amino]-2-methoxy-pyridine-3-carboxamide] | > 10000 nM | B (an IC50 ratio greater than or equal to 3 fold but lower than 10 fold) |
| 50 to 500 nM | > 500 nM | > 1000 nM | 50 to 500 nM | > 1000 nM | C[C@@H]1CCC[C@H]2CN(C(=O)C(=O)Nc3cncc(C(N)=O)c3)CC[C@H]21 (racemic) [Compound 515, 5-(2-(5-methyloctahydroisoquinolin-2(1H)-yl)-2-oxoacetamido)nicotinamide] | > 10000 nM | B (an IC50 ratio greater than or equal to 3 fold but lower than 10 fold) |
| > 500 nM | > 500 nM | > 1000 nM | 50 to 500 nM | > 1000 nM | C[C@@H]1CC[C@@](C)(c2ccccc2)N(C(=O)C(=O)Nc2cncc(C(N)=O)c2)C1 (racemic) [Compound 521, 5-(2-(2,5-dimethyl-2-phenylpiperidin-1-yl)-2-oxoacetamido)nicotinamide] | > 10000 nM | B (an IC50 ratio greater than or equal to 3 fold but lower than 10 fold) |
